The values below come from patent US11802120B2, “Fused cyclic urea derivatives as CRHR2 antagonist” (RaQualia Pharma Inc., priority 2018, dated 2023).

The assay concerns the target T1, human CRHR2-alpha (Homo sapiens, UniProt Q13324).
T1 sequence (Q13324 1-411): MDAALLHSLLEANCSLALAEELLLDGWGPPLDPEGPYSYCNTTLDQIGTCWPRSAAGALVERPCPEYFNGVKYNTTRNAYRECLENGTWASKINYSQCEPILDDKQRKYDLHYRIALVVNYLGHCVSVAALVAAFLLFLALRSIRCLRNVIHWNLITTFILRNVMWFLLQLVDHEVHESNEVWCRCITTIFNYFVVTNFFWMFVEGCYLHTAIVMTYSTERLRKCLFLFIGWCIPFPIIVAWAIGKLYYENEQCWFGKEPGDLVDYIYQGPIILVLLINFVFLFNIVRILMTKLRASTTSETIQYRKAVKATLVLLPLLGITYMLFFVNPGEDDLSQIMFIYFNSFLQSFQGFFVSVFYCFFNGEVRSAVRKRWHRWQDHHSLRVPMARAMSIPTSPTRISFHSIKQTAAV
Nature of the assay: cAMP functional assay for human CRHR2 (LANCE Ultra cAMP, TR-FRET). The format is cell-based. The conditions noted are these: CHO-K1 cells expressing human CRHR2-alpha, agonist human urocortin2 at EC80, cAMP; read-out: IC50 against CRHR2. The gist of the method: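 Inhibition of agonist-driven cAMP was assessed in recombinant CHO-K1 cells at 25° C, using 30 min compound pretreatment and 30 min stimulation with EC80 human urocortin2 (CRHR2) or CRF (CRHR1). IC50 came from dose-response fitting.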
Take `O=C(N[C@H]1CC[C@H](Cn2c(=O)n(-c3cccc(-c4cn[nH]c4)c3)c3ccccc32)CC1)c1cc(Cl)cnc1C(F)F` [Example 697, N-((1r,4r)-4-((3-(3-(1H-pyrazol-4-yl)phenyl)-2-oxo-2,3-dihydro-1H-benzo[d]imidazol-1-yl)methyl)cyclohexyl)-5-chloro-2-(difluoromethyl)nicotinamide]: the half-maximal inhibitory concentration (IC50) was < 0.3 µM.
Regarding `Cn1cc(-c2cc(-n3c(=O)n(C[C@H]4CC[C@H](NC(=O)c5cc(Cl)cnc5C(F)F)CC4)c4ccccc43)ccn2)cn1` [Example 699, 5-chloro-2-(difluoromethyl)-N-((1r,4r)-4-((3-(2-(1-methyl-1H-pyrazol-4-yl)pyridin-4-yl)-2-oxo-2,3-dihydro-1H-benzo [d]imidazol-1-yl)methyl)cyclo-hexyl)nicotinamide], the IC50 is < 0.3 µM.
Turning to `Cn1ccc(-c2cccc(-n3c(=O)n(C[C@H]4CC[C@H](NC(=O)c5cc(Cl)cnc5C(F)F)CC4)c4ccccc43)c2)n1` [Example 700, 5-chloro-2-(difluoromethyl)-N-((1r,4r)-4-((3-(3-(1-methyl-1H-pyrazol-3-yl)phenyl)-2-oxo-2,3-dihydro-1H-benzo[d]imidazol-1-yl)methyl)cyclohexyl) nicotinamide], the IC50 is < 0.3 µM.
As to `Cn1ccc(-c2cncc(-n3c(=O)n(C[C@H]4CC[C@H](NC(=O)c5cc(Cl)cnc5C(F)F)CC4)c4ccccc43)c2)n1` [Example 701, 5-chloro-2-(difluoromethyl)-N-((1r,4r)-4-((3-(5-(1-methyl-1H-pyrazol-3-yl)pyridin-3-yl)-2-oxo-2,3-dihydro-1H-benzo [d]imidazol-1-yl)methyl)cyclo-hexyl)nicotinamide], the IC50 is < 0.3 µM.
Consider `Cn1ccc(-c2cc(-n3c(=O)n(C[C@H]4CC[C@H](NC(=O)c5cc(Cl)cnc5C(F)F)CC4)c4ccccc43)ccn2)n1` [Example 702, 5-chloro-2-(difluoromethyl)-N-((1r,4r)-4-((3-(2-(1-methyl-1H-pyrazol-3-yl)pyridin-4-yl)-2-oxo-2,3-dihydro-1H-benzo[d]imidazol-1-yl)methyl)cyclohexyl)nicotinamide], for which the IC50 is < 0.3 µM.
As to `O=C(N[C@H]1CC[C@H](Cn2c(=O)n(-c3cncc(-n4cccn4)c3)c3ccccc32)CC1)c1cc(Cl)cnc1C(F)F` [Example 703, N-((1r,4r)-4-((3-(5-(1H-pyrazol-1-yl)pyridin-3-yl)-2-oxo-2,3-dihydro-1H-benzo [d]imidazol-1-yl)methyl)cyclohexyl)-5-chloro-2-(difluoromethyl)nicotinamide], the half-maximal inhibitory concentration (IC50) is < 0.3 µM.
`CNc1ccc(-n2c(=O)n(C[C@H]3CC[C@H](NC(=O)c4cc(Cl)cnc4C(F)(F)F)CC3)c3cc(F)ccc32)cn1` [Example 704, 5-chloro-N-((1r,4r)-4-((6-fluoro-3-(6-(methylamino)pyridin-3-yl)-2-oxo-2,3-dihydro-1H-benzo[d]imidazol-1-yl)methyl)cyclo-hexyl)-2-(trifluoromethyl) nicotinamide]: the IC50 was < 0.3 µM.
As to `CNc1ccc(-n2c(=O)n(C[C@H]3CC[C@H](NC(=O)c4cc(Cl)cnc4C(F)(F)F)CC3)c3ccc(F)cc32)cn1` [Example 705, 5-chloro-N-((1r,4r)-4-((5-fluoro-3-(6-(methylamino)pyridin-3-yl)-2-oxo-2,3-dihydro-1H-benzo[d]imidazol-1-yl)methyl)cyclo-hexyl)-2-(trifluoromethyl) nicotinamide], the IC50 was < 0.3 µM.
Consider `O=C(N[C@H]1CC[C@H](Cn2c(=O)n(-c3ccnc(N4CCCC4=O)c3)c3ccccc32)CC1)c1cc(Cl)cnc1C(F)F` [Example 706, 5-chloro-2-(difluoromethyl)-N-((1r,4r)-4-((2-oxo-3-(2-(2-oxopyrrolidin-1-yl)pyridin-4-yl)-2,3-dihydro-1H-benzo[d]imidazol-1-yl)methyl)cyclo-hexyl)nicotinamide], for which the IC50 is < 0.3 µM.
Regarding `CN1CCN(c2cc(-n3c(=O)n(C[C@H]4CC[C@H](NC(=O)c5cc(Cl)cnc5C(F)F)CC4)c4ccccc43)ccn2)C1=O` [Example 707, 5-chloro-2-(difluoromethyl)-N-((1r,4r)-4-((3-(2-(3-methyl-2-oxoimidazolidin-1-yl)pyridin-4-yl)-2-oxo-2,3-dihydro-1H-benzo[d]imidazol-1-yl)methyl)cyclohexyl) nicotinamide], the IC50 is < 0.3 µM.
With `Cc1cc2cc(-n3c(=O)n(C[C@H]4CC[C@H](NC(=O)c5cc(Cl)cnc5C(F)F)CC4)c4cccnc43)cnc2n1C` [Example 708, 5-chloro-2-(difluoromethyl)-N-((1r,4r)-4-((3-(1,2-dimethyl-1H-pyrrolo[2,3-b]pyridin-5-yl)-2-oxo-2,3-dihydro-1H-imidazo[4,5-b]pyridin-1-yl)methyl)cyclohexyl)nicotinamide], the IC50 is < 0.3 µM.
Under `O=C(N[C@H]1CC[C@H](Cn2c(=O)n(-c3cnc4[nH]c(CO)cc4c3)c3ccccc32)CC1)c1cc(Cl)cnc1C(F)F` [Example 709, 5-chloro-2-(difluoromethyl)-N-((1r,4r)-4-((3-(2-(hydroxymethyl)-1H-pyrrolo[2,3-b]pyridin-5-yl)-2-oxo-2,3-dihydro-1H-benzo[d]imidazol-1-yl)methyl)cyclohexyl)nicotinamide] stands < 0.3 µM; under `COc1ccc(-n2c(=O)n(C[C@H]3CC[C@H](NC(=O)c4cc(Cl)cnc4C(F)F)CC3)c3cccnc32)cc1F` [Example 710, 5-chloro-2-(difluoromethyl)-N-((1r,4r)-4-((3-(3-fluoro-4-methoxyphenyl)-2-oxo-2,3-dihydro-1H-imidazo[4,5-b]pyridin-1-yl)methyl)cyclo-hexyl)nicotinamide], < 0.3 µM.
For `O=C(N[C@H]1CC[C@H](Cn2c(=O)n(-c3ccc(OCCO)nc3)c3ccc(F)cc32)CC1)c1cc(Cl)cnc1C(F)F` [Example 712, 5-chloro-2-(difluoromethyl)-N-((1r,4r)-4-((6-fluoro-3-(6-(2-hydroxyethoxy)pyridin-3-yl)-2-oxo-2,3-dihydro-1H-benzo[d]imidazol-1-yl)methyl)cyclohexyl)nicotinamide], the IC50 was < 0.3 µM.
Under `O=C(N[C@H]1CC[C@H](Cn2c(=O)n(-c3ccc(NCCO)nc3)c3ccc(F)cc32)CC1)c1cc(Cl)cnc1C(F)F` [Example 713, 5-chloro-2-(difluoromethyl)-N-((1r,4r)-4-((6-fluoro-3-(6-((2-hydroxyethyl)amino)pyridin-3-yl)-2-oxo-2,3-di-hydro-1H-benzo[d]imidazol-1-yl)methyl)cyclohexyl) nicotinamide] stands < 0.3 µM; under `O=C(N[C@H]1CC[C@H](Cn2c(=O)n(-c3ccc(NCCO)cn3)c3ccccc32)CC1)c1cc(Cl)cnc1C(F)F` [Example 715, 5-chloro-2-(difluoromethyl)-N-((1r,4r)-4-((3-(5-((2-hydroxyethyl)amino)pyridin-2-yl)-2-oxo-2,3-dihydro-1H-benzo[d]imidazol-1-yl)methyl)cyclohexyl)nicotinamide], < 0.3 µM; under `O=C(N[C@H]1CC[C@H](Cn2c(=O)n(-c3ccc(N4CCNC4=O)cn3)c3ccccc32)CC1)c1cc(Cl)cnc1C(F)F` [Example 717, 5-chloro-2-(difluoromethyl)-N-((1r,4r)-4-((2-oxo-3-(5-(2-oxoimidazolidin-1-yl)pyridin-2-yl)-2,3-dihydro-1H-benzo [d]imidazol-1-yl)methyl)cyclo-hexyl)nicotinamide], < 0.3 µM.
With `O=C(N[C@H]1CC[C@H](Cn2c(=O)n(-c3cc(F)ccc3Cl)c3cnccc32)CC1)c1cc(Cl)cnc1C(F)F` [Example 718, 5-chloro-N-((1r,4r)-4-((3-(2-chloro-5-fluorophenyl)-2-oxo-2,3-dihydro-1H-imidazo[4,5-c]pyridin-1-yl)methyl)cyclo-hexyl)-2-(difluoromethyl) nicotinamide], the IC50 was < 0.3 µM.
Consider `COc1ccc(F)c(-n2c(=O)n(C[C@H]3CC[C@H](NC(=O)c4cc(Cl)cnc4C(F)F)CC3)c3ncccc32)c1` [Example 720, 5-chloro-2-(difluoromethyl)-N-((1r,4r)-4-((1-(2-fluoro-5-methoxyphenyl)-2-oxo-1H-imidazo[4,5-b]pyridin-3(2H)-yl)methyl)cyclohexyl) nicotinamide], for which the IC50 is < 0.3 µM.
Take `O=C(N[C@H]1CC[C@H](Cn2c(=O)n(-c3ccccc3Cl)c3cnccc32)CC1)c1cc(Cl)cnc1C(F)F` [Example 721, 5-chloro-N-((1r,4r)-4-((3-(2-chlorophenyl)-2-oxo-2,3-dihydro-1H-imidazo[4,5-c]pyridin-1-yl)methyl)cyclo-hexyl)-2-(difluoromethyl) nicotinamide]: the IC50 is < 0.3 µM.
On to `COc1ccc(-n2c(=O)n(C[C@H]3CC[C@H](NC(=O)c4cc(Cl)cnc4C(F)F)CC3)c3ncccc32)cc1F` [Example 722, 5-chloro-2-(difluoromethyl)-N-((1r,4r)-4-((1-(3-fluoro-4-methoxyphenyl)-2-oxo-1H-imidazo[4,5-b]pyridin-3(2H)-yl)methyl)cyclohexyl) nicotinamide], for which the IC50 was < 0.3 µM.
`COc1ccc(-n2c(=O)n(C[C@H]3CC[C@H](NC(=O)c4cc(Cl)cnc4C(F)F)CC3)c3cnccc32)cc1F` [Example 724, 5-chloro-2-(difluoromethyl)-N-((1r,4r)-4-((1-(3-fluoro-4-methoxyphenyl)-2-oxo-1H-imidazo[4,5-c]pyridin-3(2H)-yl)methyl)cyclohexyl) nicotinamide]: the IC50 is < 0.3 µM.
